{
  "source": "paper PMC9954146",
  "about": "“Anti-Leukaemic Activity of Rilpivirine Is Mediated by Aurora A Kinase Inhibition” (Cancers, 2023)",
  "assay_in_all_cases": "Kinase panel",
  "assay_type_in_all_cases": "biochemical",
  "settings_in_all_cases": "read-out: % Residual Activity",
  "key": {"cSRC(h)": {"biological_target": "T1, cSRC(h) (Homo sapiens, UniProt P12931)", "T1 construct": "purchased Eurofins (KinaseProfiler)", "summary_of_the_method": "(§1)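 Kinome-wide selectivity of rilpivirine was profiled in a commercial kinase panel. Radioisotope-based assays run at each kinase's ATP Km gave IC50 values, which were converted to Ki with the Cheng–Prusoff equation.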"}, "PKCι(h)": {"biological_target": "T2, PKCι(h) (Homo sapiens, UniProt P41743)", "T2 construct": "purchased Eurofins (KinaseProfiler)", "summary_of_the_method": "as §1"}, "EphA5(h)": {"biological_target": "T3, EphA5(h) (Homo sapiens, UniProt P54756)", "T3 construct": "purchased Eurofins (KinaseProfiler)", "summary_of_the_method": "as §1"}, "CK2α2(h)": {"biological_target": "T4, CK2α2(h) (Homo sapiens, UniProt P19784)", "T4 construct": "purchased Eurofins (KinaseProfiler)", "summary_of_the_method": "as §1"}, "CLK1(h)": {"biological_target": "T5, CLK1(h) (Homo sapiens, UniProt P49759)", "T5 construct": "purchased Eurofins (KinaseProfiler)", "T5 sequence (P49759 whole entry)": "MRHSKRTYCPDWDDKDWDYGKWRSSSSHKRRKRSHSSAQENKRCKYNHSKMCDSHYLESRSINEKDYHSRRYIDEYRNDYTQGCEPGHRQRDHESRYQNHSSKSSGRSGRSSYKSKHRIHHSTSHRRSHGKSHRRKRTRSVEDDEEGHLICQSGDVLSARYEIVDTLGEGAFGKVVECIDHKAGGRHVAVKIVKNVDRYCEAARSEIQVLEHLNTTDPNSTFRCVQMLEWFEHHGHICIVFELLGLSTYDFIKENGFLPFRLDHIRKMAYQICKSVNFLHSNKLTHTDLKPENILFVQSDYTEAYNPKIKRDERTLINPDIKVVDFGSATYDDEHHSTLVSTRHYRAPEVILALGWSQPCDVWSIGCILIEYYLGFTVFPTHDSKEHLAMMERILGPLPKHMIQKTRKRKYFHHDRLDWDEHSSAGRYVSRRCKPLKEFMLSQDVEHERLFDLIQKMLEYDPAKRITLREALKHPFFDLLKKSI", "summary_of_the_method": "as §1"}, "BrSK2(h)": {"biological_target": "T6, BrSK2(h) (Homo sapiens, UniProt Q8IWQ3)", "T6 construct": "purchased Eurofins (KinaseProfiler)", "summary_of_the_method": "as §1"}, "PKBα(h)": {"biological_target": "T7, PKBα(h) (Homo sapiens, UniProt P31749)", "T7 construct": "purchased Eurofins (KinaseProfiler)", "summary_of_the_method": "as §1"}, "HRI(h)": {"biological_target": "T8, HRI(h) (Homo sapiens, UniProt Q9BQI3)", "T8 construct": "purchased Eurofins (KinaseProfiler)", "summary_of_the_method": "as §1"}, "Fgr(h)": {"biological_target": "T9, Fgr(h) (Homo sapiens, UniProt P09769)", "T9 construct": "purchased Eurofins (KinaseProfiler)", "T9 sequence (P09769 whole entry)": "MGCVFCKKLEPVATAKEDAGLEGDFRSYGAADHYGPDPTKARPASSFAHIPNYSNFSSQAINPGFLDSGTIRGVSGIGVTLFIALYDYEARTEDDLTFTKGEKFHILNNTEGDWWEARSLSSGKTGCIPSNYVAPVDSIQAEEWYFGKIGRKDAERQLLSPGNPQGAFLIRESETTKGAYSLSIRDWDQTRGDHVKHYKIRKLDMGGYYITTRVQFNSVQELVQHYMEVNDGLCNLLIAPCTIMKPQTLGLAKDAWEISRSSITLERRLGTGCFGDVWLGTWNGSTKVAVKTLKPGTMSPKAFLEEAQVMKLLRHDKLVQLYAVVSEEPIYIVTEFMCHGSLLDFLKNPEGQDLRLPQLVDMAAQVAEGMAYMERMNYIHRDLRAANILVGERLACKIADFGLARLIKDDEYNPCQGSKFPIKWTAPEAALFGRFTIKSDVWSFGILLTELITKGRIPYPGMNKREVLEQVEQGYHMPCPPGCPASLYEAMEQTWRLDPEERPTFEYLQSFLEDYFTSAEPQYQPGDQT", "summary_of_the_method": "as §1"}, "EGFR(h)": {"biological_target": "T10, EGFR(h) (Homo sapiens, UniProt P00533)", "T10 construct": "purchased Eurofins (KinaseProfiler)", "T10 sequence (P00533 25-1210)": "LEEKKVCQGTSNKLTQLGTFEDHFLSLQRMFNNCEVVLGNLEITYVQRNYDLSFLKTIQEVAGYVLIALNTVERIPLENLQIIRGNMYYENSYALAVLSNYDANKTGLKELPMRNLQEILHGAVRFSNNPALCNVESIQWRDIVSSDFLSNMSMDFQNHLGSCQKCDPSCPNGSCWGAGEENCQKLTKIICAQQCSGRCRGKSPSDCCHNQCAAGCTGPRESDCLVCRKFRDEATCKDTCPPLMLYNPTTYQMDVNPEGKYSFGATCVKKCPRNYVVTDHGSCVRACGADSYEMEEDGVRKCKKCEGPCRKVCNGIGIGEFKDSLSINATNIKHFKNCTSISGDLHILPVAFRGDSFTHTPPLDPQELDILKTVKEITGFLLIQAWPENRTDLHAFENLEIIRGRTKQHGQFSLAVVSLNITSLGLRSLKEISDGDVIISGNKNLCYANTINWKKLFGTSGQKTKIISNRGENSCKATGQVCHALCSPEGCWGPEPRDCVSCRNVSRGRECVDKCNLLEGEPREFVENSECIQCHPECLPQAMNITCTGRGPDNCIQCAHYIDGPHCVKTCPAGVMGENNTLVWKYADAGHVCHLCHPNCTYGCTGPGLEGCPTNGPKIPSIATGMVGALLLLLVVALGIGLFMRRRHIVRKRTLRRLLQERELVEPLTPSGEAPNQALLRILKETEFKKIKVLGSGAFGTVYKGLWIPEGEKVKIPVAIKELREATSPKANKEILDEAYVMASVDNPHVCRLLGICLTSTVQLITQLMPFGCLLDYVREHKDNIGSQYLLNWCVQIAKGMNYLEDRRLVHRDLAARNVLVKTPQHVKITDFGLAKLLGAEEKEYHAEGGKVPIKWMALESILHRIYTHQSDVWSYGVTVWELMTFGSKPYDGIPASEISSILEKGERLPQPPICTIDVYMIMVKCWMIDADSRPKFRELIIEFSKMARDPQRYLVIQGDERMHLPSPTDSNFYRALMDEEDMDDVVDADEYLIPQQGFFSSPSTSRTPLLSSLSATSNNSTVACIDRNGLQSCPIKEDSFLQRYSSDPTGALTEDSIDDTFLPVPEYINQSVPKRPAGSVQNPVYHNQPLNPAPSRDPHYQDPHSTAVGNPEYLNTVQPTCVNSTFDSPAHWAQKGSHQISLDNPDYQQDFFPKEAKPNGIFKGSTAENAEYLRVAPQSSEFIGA", "summary_of_the_method": "as §1"}, "SIK(h)": {"biological_target": "T11, SIK(h) (Homo sapiens, UniProt P57059)", "T11 construct": "purchased Eurofins (KinaseProfiler)", "summary_of_the_method": "as §1"}, "Lyn(m)": {"biological_target": "T12, Lyn(m) (Mus musculus, UniProt P25911)", "T12 construct": "purchased Eurofins (KinaseProfiler)", "summary_of_the_method": "as §1"}, "CDK4/cyclinD3(h)": {"biological_target": "T13, CDK4/cyclinD3(h) (Homo sapiens, UniProt P11802)", "T13 construct": "purchased Eurofins (KinaseProfiler)", "summary_of_the_method": "as §1"}, "Hck(h) activated": {"biological_target": "T14, Hck(h) activated (Homo sapiens, UniProt P08631)", "T14 construct": "purchased Eurofins (KinaseProfiler)", "summary_of_the_method": "as §1"}, "CDK3/cyclinE(h)": {"biological_target": "T15, CDK3/cyclinE(h) (Homo sapiens, UniProt Q00526)", "T15 construct": "purchased Eurofins (KinaseProfiler)", "T15 sequence (Q00526 whole entry)": "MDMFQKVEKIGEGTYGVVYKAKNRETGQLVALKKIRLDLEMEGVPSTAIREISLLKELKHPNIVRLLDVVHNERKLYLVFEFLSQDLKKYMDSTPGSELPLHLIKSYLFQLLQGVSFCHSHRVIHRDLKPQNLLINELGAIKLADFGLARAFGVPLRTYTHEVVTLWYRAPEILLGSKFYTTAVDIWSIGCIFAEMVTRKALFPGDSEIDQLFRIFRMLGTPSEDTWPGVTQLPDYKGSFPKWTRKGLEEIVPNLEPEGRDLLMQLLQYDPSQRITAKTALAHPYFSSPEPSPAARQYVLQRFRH", "T15 sequence (P24864 whole entry partner)": "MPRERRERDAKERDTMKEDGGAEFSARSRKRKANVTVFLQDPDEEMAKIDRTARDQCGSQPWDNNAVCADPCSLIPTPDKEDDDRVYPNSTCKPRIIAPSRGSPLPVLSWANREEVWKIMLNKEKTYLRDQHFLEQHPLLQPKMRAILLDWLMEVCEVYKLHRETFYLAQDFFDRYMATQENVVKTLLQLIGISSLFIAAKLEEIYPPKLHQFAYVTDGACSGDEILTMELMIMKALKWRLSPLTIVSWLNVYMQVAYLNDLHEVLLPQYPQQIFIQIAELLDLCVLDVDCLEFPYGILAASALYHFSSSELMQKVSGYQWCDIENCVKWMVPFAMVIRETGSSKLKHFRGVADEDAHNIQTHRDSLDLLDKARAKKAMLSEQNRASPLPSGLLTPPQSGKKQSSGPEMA", "summary_of_the_method": "as §1"}, "PAK1(h)": {"biological_target": "T16, PAK1(h) (Homo sapiens, UniProt Q13153)", "T16 construct": "purchased Eurofins (KinaseProfiler)", "summary_of_the_method": "as §1"}, "LATS1(h)": {"biological_target": "T17, LATS1(h) (Homo sapiens, UniProt O95835)", "T17 construct": "purchased Eurofins (KinaseProfiler)", "summary_of_the_method": "as §1"}, "MAP4K3(h)": {"biological_target": "T18, MAP4K3(h) (Homo sapiens, UniProt Q8IVH8)", "T18 construct": "purchased Eurofins (KinaseProfiler)", "summary_of_the_method": "as §1"}, "PDHK4(h)": {"biological_target": "T19, PDHK4(h) (Homo sapiens, UniProt Q16654)", "T19 construct": "purchased Eurofins (KinaseProfiler)", "summary_of_the_method": "as §1"}, "NEK1(h)": {"biological_target": "T20, NEK1(h) (Homo sapiens, UniProt Q96PY6)", "T20 construct": "purchased Eurofins (KinaseProfiler)", "summary_of_the_method": "as §1"}, "JNK1α1(h)": {"biological_target": "T21, JNK1α1(h) (Homo sapiens, UniProt P45983)", "T21 construct": "purchased Eurofins (KinaseProfiler)", "summary_of_the_method": "as §1"}, "PKCζ(h)": {"biological_target": "T22, PKCζ(h) (Homo sapiens, UniProt Q05513)", "T22 construct": "purchased Eurofins (KinaseProfiler)", "summary_of_the_method": "as §1"}, "PKCγ(h)": {"biological_target": "T23, PKCγ(h) (Homo sapiens, UniProt P05129)", "T23 construct": "purchased Eurofins (KinaseProfiler)", "summary_of_the_method": "as §1"}, "PKD3(h)": {"biological_target": "T24, PKD3(h) (Homo sapiens, UniProt O94806)", "T24 construct": "purchased Eurofins (KinaseProfiler)", "summary_of_the_method": "as §1"}, "CRIK(h)": {"biological_target": "T25, CRIK(h) (Homo sapiens, UniProt O14578)", "T25 construct": "purchased Eurofins (KinaseProfiler)", "summary_of_the_method": "as §1"}, "STK32C(h)": {"biological_target": "T26, STK32C(h) (Homo sapiens, UniProt Q86UX6)", "T26 construct": "purchased Eurofins (KinaseProfiler)", "summary_of_the_method": "as §1"}, "PKCα(h)": {"biological_target": "T27, PKCα(h) (Homo sapiens, UniProt P17252)", "T27 construct": "purchased Eurofins (KinaseProfiler)", "summary_of_the_method": "as §1"}, "PhKγ2(h)": {"biological_target": "T28, PhKγ2(h) (Homo sapiens, UniProt P15735)", "T28 construct": "purchased Eurofins (KinaseProfiler)", "summary_of_the_method": "as §1"}, "JNK3(h)": {"biological_target": "T29, JNK3(h) (Homo sapiens, UniProt P53779)", "T29 construct": "purchased Eurofins (KinaseProfiler)", "summary_of_the_method": "as §1"}, "Itk(h)": {"biological_target": "T30, Itk(h) (Homo sapiens, UniProt Q08881)", "T30 construct": "purchased Eurofins (KinaseProfiler)", "T30 sequence (Q08881 whole entry)": "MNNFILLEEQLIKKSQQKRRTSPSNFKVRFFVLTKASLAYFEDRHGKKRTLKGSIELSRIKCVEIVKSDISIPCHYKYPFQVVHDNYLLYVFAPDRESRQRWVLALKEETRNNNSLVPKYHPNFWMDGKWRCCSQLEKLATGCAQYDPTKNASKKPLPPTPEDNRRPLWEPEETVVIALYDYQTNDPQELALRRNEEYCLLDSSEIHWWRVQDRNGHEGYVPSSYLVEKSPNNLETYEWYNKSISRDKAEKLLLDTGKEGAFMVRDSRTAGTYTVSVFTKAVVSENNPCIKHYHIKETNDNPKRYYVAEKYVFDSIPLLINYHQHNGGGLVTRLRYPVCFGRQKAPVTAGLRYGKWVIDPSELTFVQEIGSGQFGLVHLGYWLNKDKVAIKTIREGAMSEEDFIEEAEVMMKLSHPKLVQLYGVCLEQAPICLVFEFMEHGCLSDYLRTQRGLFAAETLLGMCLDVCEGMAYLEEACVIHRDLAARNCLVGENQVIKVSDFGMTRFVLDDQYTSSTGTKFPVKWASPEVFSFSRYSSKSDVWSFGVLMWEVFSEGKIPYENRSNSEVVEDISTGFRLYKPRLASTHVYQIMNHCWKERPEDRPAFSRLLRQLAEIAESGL", "summary_of_the_method": "as §1"}, "PRK1(h)": {"biological_target": "T31, PRK1(h) (Homo sapiens, UniProt Q16512)", "T31 construct": "purchased Eurofins (KinaseProfiler)", "summary_of_the_method": "as §1"}, "[1]": {"biological_target": "T32, PI3 Kinase (p110d/p85a)(h) (Homo sapiens, UniProt O00329)", "T32 construct": "purchased Eurofins (KinaseProfiler)", "summary_of_the_method": "as §1"}, "GCN2(h)": {"biological_target": "T33, GCN2(h) (Homo sapiens, UniProt Q9P2K8)", "T33 construct": "purchased Eurofins (KinaseProfiler)", "summary_of_the_method": "as §1"}, "LATS2(h)": {"biological_target": "T34, LATS2(h) (Homo sapiens, UniProt Q9NRM7)", "T34 construct": "purchased Eurofins (KinaseProfiler)", "summary_of_the_method": "as §1"}, "Ret(h)": {"biological_target": "T35, Ret(h) (Homo sapiens, UniProt P07949)", "T35 construct": "purchased Eurofins (KinaseProfiler)", "summary_of_the_method": "as §1"}, "ZAK(h)": {"biological_target": "T36, ZAK(h) (Homo sapiens, UniProt Q9NYL2)", "T36 construct": "purchased Eurofins (KinaseProfiler)", "summary_of_the_method": "as §1"}, "DDR2(h)": {"biological_target": "T37, DDR2(h) (Homo sapiens, UniProt Q16832)", "T37 construct": "purchased Eurofins (KinaseProfiler)", "summary_of_the_method": "as §1"}, "PTK5(h)": {"biological_target": "T38, PTK5(h) (Homo sapiens, UniProt P42685)", "T38 construct": "purchased Eurofins (KinaseProfiler)", "summary_of_the_method": "as §1"}, "TLK2(h)": {"biological_target": "T39, TLK2(h) (Homo sapiens, UniProt Q86UE8)", "T39 construct": "purchased Eurofins (KinaseProfiler)", "T39 sequence (Q86UE8 whole entry)": "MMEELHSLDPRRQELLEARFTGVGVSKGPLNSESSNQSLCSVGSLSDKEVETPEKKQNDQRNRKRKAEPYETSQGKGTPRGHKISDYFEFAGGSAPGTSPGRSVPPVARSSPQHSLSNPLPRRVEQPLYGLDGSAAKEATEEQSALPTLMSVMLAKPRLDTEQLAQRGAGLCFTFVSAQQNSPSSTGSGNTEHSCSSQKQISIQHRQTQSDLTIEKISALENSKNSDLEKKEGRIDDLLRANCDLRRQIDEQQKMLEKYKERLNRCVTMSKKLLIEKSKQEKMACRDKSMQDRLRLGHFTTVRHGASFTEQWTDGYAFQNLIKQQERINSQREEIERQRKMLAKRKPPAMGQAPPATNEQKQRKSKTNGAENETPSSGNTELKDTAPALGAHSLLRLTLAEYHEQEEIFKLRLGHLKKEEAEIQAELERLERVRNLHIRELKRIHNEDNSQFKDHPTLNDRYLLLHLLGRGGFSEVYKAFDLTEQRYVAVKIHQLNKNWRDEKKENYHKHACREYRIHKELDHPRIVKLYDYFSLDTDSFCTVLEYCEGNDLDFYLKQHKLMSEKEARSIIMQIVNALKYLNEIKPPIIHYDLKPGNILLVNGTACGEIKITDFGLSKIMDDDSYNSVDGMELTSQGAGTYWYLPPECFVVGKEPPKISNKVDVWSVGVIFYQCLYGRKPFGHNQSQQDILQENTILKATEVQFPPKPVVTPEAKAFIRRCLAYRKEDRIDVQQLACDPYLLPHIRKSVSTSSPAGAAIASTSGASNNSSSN", "summary_of_the_method": "as §1"}},
  "data": [
    {"smiles": "Cc1cc(/C=C/C#N)cc(C)c1Nc1ccnc(Nc2ccc(C#N)cc2)n1", "note": "[rilpivirine, (E)-4-((4-((4-(2-cyanoethenyl)-2,6-dimethylphenyl)amino)pyrimidin-2-yl)amino)benzonitrile]", "values": [
      {"measurement": "remaining activity at 1 µM", "setting": "cSRC(h)", "result": 53, "unit": "%"},
      {"measurement": "remaining activity at 1 µM", "setting": "PKCι(h)", "result": 99, "unit": "%"},
      {"measurement": "remaining activity at 1 µM", "setting": "EphA5(h)", "result": 79, "unit": "%"},
      {"measurement": "remaining activity at 1 µM", "setting": "CK2α2(h)", "result": 104, "unit": "%"},
      {"measurement": "remaining activity at 1 µM", "setting": "CLK1(h)", "result": 48, "unit": "%"},
      {"measurement": "remaining activity at 1 µM", "setting": "BrSK2(h)", "result": 80, "unit": "%"},
      {"measurement": "remaining activity at 1 µM", "setting": "PKBα(h)", "result": 80, "unit": "%"},
      {"measurement": "remaining activity at 1 µM", "setting": "HRI(h)", "result": 91, "unit": "%"},
      {"measurement": "remaining activity at 1 µM", "setting": "Fgr(h)", "result": 37, "unit": "%"},
      {"measurement": "remaining activity at 1 µM", "setting": "EGFR(h)", "result": 111, "unit": "%"},
      {"measurement": "remaining activity at 1 µM", "setting": "SIK(h)", "result": 66, "unit": "%"},
      {"measurement": "remaining activity at 1 µM", "setting": "Lyn(m)", "result": 25, "unit": "%"},
      {"measurement": "remaining activity at 1 µM", "setting": "CDK4/cyclinD3(h)", "result": 101, "unit": "%"},
      {"measurement": "remaining activity at 1 µM", "setting": "Hck(h) activated", "result": 63, "unit": "%"},
      {"measurement": "remaining activity at 1 µM", "setting": "CDK3/cyclinE(h)", "result": 90, "unit": "%"},
      {"measurement": "remaining activity at 1 µM", "setting": "PAK1(h)", "result": 92, "unit": "%"},
      {"measurement": "remaining activity at 1 µM", "setting": "LATS1(h)", "result": 86, "unit": "%"},
      {"measurement": "remaining activity at 1 µM", "setting": "MAP4K3(h)", "result": 91, "unit": "%"},
      {"measurement": "remaining activity at 1 µM", "setting": "PDHK4(h)", "result": 94, "unit": "%"},
      {"measurement": "remaining activity at 1 µM", "setting": "NEK1(h)", "result": 86, "unit": "%"},
      {"measurement": "remaining activity at 1 µM", "setting": "JNK1α1(h)", "result": 90, "unit": "%"},
      {"measurement": "remaining activity at 1 µM", "setting": "PKCζ(h)", "result": 80, "unit": "%"},
      {"measurement": "remaining activity at 1 µM", "setting": "PKCγ(h)", "result": 103, "unit": "%"},
      {"measurement": "remaining activity at 1 µM", "setting": "PKD3(h)", "result": 76, "unit": "%"},
      {"measurement": "remaining activity at 1 µM", "setting": "CRIK(h)", "result": 107, "unit": "%"},
      {"measurement": "remaining activity at 1 µM", "setting": "STK32C(h)", "result": 94, "unit": "%"},
      {"measurement": "remaining activity at 1 µM", "setting": "PKCα(h)", "result": 83, "unit": "%"},
      {"measurement": "remaining activity at 1 µM", "setting": "PhKγ2(h)", "result": 83, "unit": "%"},
      {"measurement": "remaining activity at 1 µM", "setting": "JNK3(h)", "result": 100, "unit": "%"},
      {"measurement": "remaining activity at 1 µM", "setting": "Itk(h)", "result": 91, "unit": "%"},
      {"measurement": "remaining activity at 1 µM", "setting": "PRK1(h)", "result": 64, "unit": "%"},
      {"measurement": "remaining activity at 1 µM", "setting": "[1]", "result": 89, "unit": "%"},
      {"measurement": "remaining activity at 1 µM", "setting": "GCN2(h)", "result": 93, "unit": "%"},
      {"measurement": "remaining activity at 1 µM", "setting": "LATS2(h)", "result": 80, "unit": "%"},
      {"measurement": "remaining activity at 1 µM", "setting": "Ret(h)", "result": 108, "unit": "%"},
      {"measurement": "remaining activity at 1 µM", "setting": "ZAK(h)", "result": 99, "unit": "%"},
      {"measurement": "remaining activity at 1 µM", "setting": "DDR2(h)", "result": 82, "unit": "%"},
      {"measurement": "remaining activity at 1 µM", "setting": "PTK5(h)", "result": 32, "unit": "%"},
      {"measurement": "remaining activity at 1 µM", "setting": "TLK2(h)", "result": 115, "unit": "%"}
    ]}
  ]
}
